# Experimental data: PubChem BioAssay AID2060884 (Molecular Pharmacology Branch, DTP, NCI, 2025)
# “And” between values parts separate entries of the source, which are not always exact repeats. Identical values can stand only once.
# System: NCI-H929 complex spheroids, viability % test/control
# Experiment: Anticancer human tumor NCI-H929 cell line growth inhibition [RAS];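 further: compound exposure lasted seven days before viability was read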;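 on viability, T/C: 100% = DMSO vehicle control viability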
# Conditions: for viability, T/C: stronger effect = lower value
# Outline: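 Multi-cell-type spheroids: tumor cells plus HUVEC endothelial cells and mesenchymal stem cells. RAS-pathway inhibitors were combined with targeted agents, each dosed in half-log steps down from clinical Cmax, or from 10 microM when Cmax was unknown.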
# [1] = curve of first compound, second compound 0.000949 µM
# [2] = curve of first compound, second compound 0.003 µM
# [3] = curve of first compound, second compound 0.00949 µM
# [4] = curve of first compound, second compound 0.03 µM
# [5] = curve of first compound, second compound 0.0949 µM
# [6] = curve of first compound, second compound 0.3 µM
# [7] = second compound 0.000949 µM, first compound 0.00316 µM
# [8] = second compound 0.000949 µM, first compound 0.01 µM
# [9] = second compound 0.000949 µM, first compound 0.0316 µM
# [10] = second compound 0.000949 µM, first compound 0.1 µM
# [11] = second compound 0.000949 µM, first compound 0.316 µM
# [12] = second compound 0.000949 µM, first compound 1 µM
# [13] = second compound 0.003 µM, first compound 0.00316 µM
# [14] = second compound 0.003 µM, first compound 0.01 µM
# [15] = second compound 0.003 µM, first compound 0.0316 µM
# [16] = second compound 0.003 µM, first compound 0.1 µM
# [17] = second compound 0.003 µM, first compound 0.316 µM
# [18] = second compound 0.003 µM, first compound 1 µM
# [19] = second compound 0.00949 µM, first compound 0.00316 µM
# [20] = second compound 0.00949 µM, first compound 0.01 µM
# [21] = second compound 0.00949 µM, first compound 0.0316 µM
# [22] = second compound 0.00949 µM, first compound 0.1 µM
# [23] = second compound 0.00949 µM, first compound 0.316 µM
# [24] = second compound 0.00949 µM, first compound 1 µM
# [25] = second compound 0.03 µM, first compound 0.00316 µM
# [26] = second compound 0.03 µM, first compound 0.01 µM
# [27] = second compound 0.03 µM, first compound 0.0316 µM
# [28] = second compound 0.03 µM, first compound 0.1 µM
# [29] = second compound 0.03 µM, first compound 0.316 µM
# [30] = second compound 0.03 µM, first compound 1 µM
# [31] = second compound 0.0949 µM, first compound 0.00316 µM
# [32] = second compound 0.0949 µM, first compound 0.01 µM
# [33] = second compound 0.0949 µM, first compound 0.0316 µM
# [34] = second compound 0.0949 µM, first compound 0.1 µM
# [35] = second compound 0.0949 µM, first compound 0.316 µM
# [36] = second compound 0.0949 µM, first compound 1 µM
# [37] = second compound 0.3 µM, first compound 0.00316 µM
# [38] = second compound 0.3 µM, first compound 0.01 µM
# [39] = second compound 0.3 µM, first compound 0.0316 µM
# [40] = second compound 0.3 µM, first compound 0.1 µM
# [41] = second compound 0.3 µM, first compound 0.316 µM
# [42] = second compound 0.3 µM, first compound 1 µM
structure (smiles),measurement,setting,value
C=CC(=O)N1CCN(c2nc(OCC3CCCN3C)nc3c(F)c(-c4nc(N)cc(C)c4C(F)(F)F)c(Cl)cc23)C(C)C1 (configuration not stated) + CCn1c(-c2cc(N3CCN(C)CC3)cnc2C(C)OC)c2c3cc(ccc31)-c1csc(n1)CC(NC(=O)C1CC1C)C(=O)N1CCCC(N1)C(=O)OCC(C)(C)C2,IC50,[1],> 1000 nM
same,IC50,[2],> 1000 nM
same,IC50,[3],> 1000 nM
same,IC50,[4],> 1000 nM
same,IC50,[5],< 3.16 nM
same,IC50,[6],< 3.16 nM
same,"viability, T/C",[7],98.6%
same,"viability, T/C",[8],92.4%
same,"viability, T/C",[9],102%
same,"viability, T/C",[10],96.4%
same,"viability, T/C",[11],101%
same,"viability, T/C",[12],107%
same,"viability, T/C",[13],89.5%
same,"viability, T/C",[14],97.1%
same,"viability, T/C",[15],97.5%
same,"viability, T/C",[16],96.6%
same,"viability, T/C",[17],101%
same,"viability, T/C",[18],97.2%
same,"viability, T/C",[19],109%
same,"viability, T/C",[20],115%
same,"viability, T/C",[21],116%
same,"viability, T/C",[22],114%
same,"viability, T/C",[23],114%
same,"viability, T/C",[24],116%
same,"viability, T/C",[25],69.4%
same,"viability, T/C",[26],70.8%
same,"viability, T/C",[27],78.2%
same,"viability, T/C",[28],91%
same,"viability, T/C",[29],89.7%
same,"viability, T/C",[30],65.1%
same,"viability, T/C",[31],8.79%
same,"viability, T/C",[32],7.92%
same,"viability, T/C",[33],7.39%
same,"viability, T/C",[34],10.4%
same,"viability, T/C",[35],12.4%
same,"viability, T/C",[36],8.5%
same,"viability, T/C",[37],4.59%
same,"viability, T/C",[38],4.22%
same,"viability, T/C",[39],3.75%
same,"viability, T/C",[40],4.24%
same,"viability, T/C",[41],4.79%
same,"viability, T/C",[42],3.26%
Nc1ccn(C2OC(CO)C(O)C2(F)F)c(=O)n1 (configuration not stated),"viability, T/C",compound 0.00316 µM,106% [middle of 4 runs]
same,"viability, T/C",compound 0.0316 µM,0.89% (2×) and 1.85% and 1.95%
same,"viability, T/C",compound 0.1 µM,1.62% [middle of 4 runs]
same,"viability, T/C",compound 0.316 µM,1.71% [middle of 4 runs]
same,"viability, T/C",compound 1 µM,1.37% [middle of 4 runs]
same,IC50,curve of compound,18.3 nM [middle of 4 runs]
CCn1c(-c2cccnc2C(C)OC)c2c3cc(ccc31)N1CCOC(CC(NC(=O)C(C(C)C)N(C)C(=O)C3(F)CCN(C(=O)C#CC(C)(C)N(C)C)CC3)C(=O)N3CCCC(N3)C(=O)OCC(C)(C)C2)C1 (configuration not stated),"viability, T/C",compound 0.000949 µM,107% [middle of 8 runs]
same,"viability, T/C",compound 0.003 µM,106% [middle of 8 runs]
same,"viability, T/C",compound 0.00949 µM,106% [middle of 8 runs]
same,"viability, T/C",compound 0.03 µM,104% [middle of 8 runs]
same,"viability, T/C",compound 0.0949 µM,99.9% [middle of 8 runs]
same,"viability, T/C",compound 0.3 µM,98.9% [middle of 8 runs]
same,IC50,"compound alone, run of 08/20/2024",> 300 nM
CCN1CCN(Cc2ccc(Nc3ncc(F)c(-c4cc(F)c5nc(C)n(C(C)C)c5c4)n3)nc2)CC1 + CCn1c(-c2cccnc2C(C)OC)c2c3cc(ccc31)N1CCOC(CC(NC(=O)C(C(C)C)N(C)C(=O)C3(F)CCN(C(=O)C#CC(C)(C)N(C)C)CC3)C(=O)N3CCCC(N3)C(=O)OCC(C)(C)C2)C1,IC50,[1],776 nM
same,IC50,[2],746 nM
same,IC50,[3],814 nM
same,IC50,[4],734 nM
same,IC50,[5],662 nM
same,IC50,[6],619 nM
same,"viability, T/C",[7],105%
same,"viability, T/C",[8],97.9%
same,"viability, T/C",[9],105%
same,"viability, T/C",[10],101%
same,"viability, T/C",[11],104%
same,"viability, T/C",[12],35.1%
same,"viability, T/C",[13],103%
same,"viability, T/C",[14],101%
same,"viability, T/C",[15],103%
same,"viability, T/C",[16],105%
same,"viability, T/C",[17],106%
same,"viability, T/C",[18],31.7%
same,"viability, T/C",[19],96.8%
same,"viability, T/C",[20],104%
same,"viability, T/C",[21],99.9%
same,"viability, T/C",[22],104%
same,"viability, T/C",[23],107%
same,"viability, T/C",[24],38.6%
same,"viability, T/C",[25],97.4%
same,"viability, T/C",[26],101%
same,"viability, T/C",[27],106%
same,"viability, T/C",[28],101%
same,"viability, T/C",[29],108%
same,"viability, T/C",[30],30.8%
same,"viability, T/C",[31],99.4%
same,"viability, T/C",[32],99.5%
same,"viability, T/C",[33],102%
same,"viability, T/C",[34],103%
same,"viability, T/C",[35],104%
same,"viability, T/C",[36],21.2%
same,"viability, T/C",[37],98.7%
same,"viability, T/C",[38],104%
same,"viability, T/C",[39],105%
same,"viability, T/C",[40],106%
same,"viability, T/C",[41],109%
same,"viability, T/C",[42],11.2%
